The values that follow come from ChEMBL document CHEMBL1145667, “Carboxyatractyloside: A Compound from Xanthium strumarium and Atractylis gummifera with Plant Growth Inhibiting Properties. The Probable "Inhibitor A"” (1983).

Molecules are shown by their SMILES. The source made the active and inactive calls. The rule behind the calls is not given here.

The test system of assay [1] is Triticum aestivum. The assay is described as follows: Growth inhibition of etiolated wheat coleoptiles at 0.60 to 0.90 retention factor by paper chromatograms relative to control. Format: functional.
The test system of assay [2] is Triticum aestivum. Briefly: Growth inhibition of etiolated wheat coleoptiles at 100 uM after 24 hrs at 22 degC in dark relative to control. It counts as functional. The note with it: read-out: GI.
In assay [3] the test system is Triticum aestivum. The assay is described as follows: Growth inhibition of etiolated wheat coleoptiles at 1000 uM after 24 hrs at 22 degC in dark relative to control. It counts as functional. The note with it: read-out: GI.
Assay [4] deals with Triticum aestivum. The assay is described as follows: Growth inhibition of etiolated wheat coleoptiles at 10 uM after 24 hrs at 22 degC in dark relative to control. Format: functional. The note with it: read-out: GI.
The test system of assay [5] is Nicotiana tabacum. Briefly: Growth inhibition of green house tobacco seedlings assessed as cupping of the leaves at 10000 uM after 72 hrs at 18.5 degC. It counts as functional, organism-based.
Assay [6] concerns Zea mays. The assay is described as follows: Growth inhibition of green house corn seedling assessed as stunting at 1000 uM after 72 hrs. Format: functional, organism-based.
Assay [7] concerns Nicotiana tabacum. The assay is described as follows: Growth inhibition of green house tobacco seedlings assessed as cupping of the leaves at 10000 uM at 18.5 degC after 24 hrs. Format: functional, organism-based.
Assay [8] deals with Zea mays. The assay is described as follows: Growth inhibition of green house corn seedling assessed as necrotic lesions at 10000 uM after 72 hrs. Format: functional, organism-based.
The subject of assay [9] is Zea mays. The assay is described as follows: Growth inhibition of green house corn seedling assessed as whorls and chlorosis of the leaf margins at 1000 uM relative to control. Format: functional. As to conditions: read-out: GI.
The subject of assay [10] is Zea mays. The assay is described as follows: Growth inhibition of green house corn seedling assessed as necrotic lesions at 10000 uM after 1 week relative to control. Format: functional. The note with it: 168 h, read-out: GI.
Assay [11] deals with Zea mays. Briefly: Growth inhibition of green house corn seedling assessed as stunting at 10000 uM after 1 week relative to control. Format: functional. The note with it: 168 h, read-out: GI.
Assay [12] has as its system Zea mays. The assay is described as follows: Growth inhibition of green house corn seedling at 1000 uM after 2 weeks relative to control. Format: functional. The note with it: 336 h, read-out: GI.
Assay [13] has as its system Nicotiana tabacum. The assay is described as follows: Growth inhibition of green house tobacco seedlings assessed as cupping of leaves resembling tobacco at 10000 uM at 2 to 7 degC after 24 hrs. Format: functional, organism-based.
The test system of assay [14] is Nicotiana tabacum. Briefly: Growth inhibition of green house tobacco seedlings assessed as cupping of the leaves at 1000 uM at 18.5 degC after 24 hrs. It counts as functional, organism-based.
For assay [15], the system named is Triticum aestivum. The assay is described as follows: Growth inhibition of etiolated wheat coleoptiles at 0.00 to 0.10 retention factor by paper chromatograms relative to control. It counts as functional. Also on record: scale not given: the % may be the effect or the level left.
Assay [16] concerns Nicotiana tabacum. The assay is described as follows: Growth inhibition of green house tobacco seedlings assessed as cupping of leaves at 100 uM within 24 hrs. Format: functional, organism-based.
Assay [17] relates to Triticum aestivum. Briefly: Growth inhibition of etiolated wheat coleoptiles at 0.20 to 0.30 retention factor by paper chromatograms relative to control. It counts as functional. On the set-up: scale not given: the % may be the effect or the level left.
Assay [18] deals with Zea mays. The assay is described as follows: Growth inhibition of green house corn seedling assessed as stunting at 100 uM after 72 hrs. It counts as functional, organism-based.
The test system of assay [19] is Nicotiana tabacum. The assay is described as follows: Growth inhibition of green house tobacco seedlings assessed as cupping of leaves resembling tobacco at 100 uM at 2 to 7 degC after 24 hrs. It counts as functional, organism-based.
Assay [20] concerns Zea mays. The assay is described as follows: Growth inhibition of green house corn seedling assessed as chlorosis at 100 uM after 72 hrs. Format: functional, organism-based.
For assay [21], the system named is Nicotiana tabacum. The assay is described as follows: Growth inhibition of green house tobacco seedlings assessed as cupping of leaves at 1000 uM within 24 hrs. It counts as functional, organism-based.
Assay [22] deals with Nicotiana tabacum. Briefly: Growth inhibition of green house tobacco seedlings assessed as cupping of the leaves at 1000 uM after 72 hrs at 18.5 degC. Format: functional, organism-based.
In assay [23] the test system is Nicotiana tabacum. The assay is described as follows: Growth inhibition of green house tobacco seedlings assessed as cupping of leaves at 10000 uM within 24 hrs. It counts as functional, organism-based.
The subject of assay [24] is Nicotiana tabacum. Briefly: Growth inhibition of green house tobacco seedlings assessed as cupping of leaves resembling tobacco at 1000 uM at 2 to 7 degC after 24 hrs. Format: functional, organism-based.
Assay [25] deals with Triticum aestivum. The assay is described as follows: Growth inhibition of etiolated wheat coleoptiles at 0.10 to 0.20 retention factor by paper chromatograms relative to control. Format: functional. On the set-up: scale not given: the % may be the effect or the level left.
The subject of assay [26] is Zea mays. Briefly: Growth inhibition of green house corn seedling assessed as chlorosis at 1000 uM after 72 hrs. Format: functional, organism-based.
Assay [27] relates to Zea mays. Briefly: Growth inhibition of green house corn seedling at 10000 uM after 2 weeks relative to control. The note with it: 336 h, read-out: GI. It counts as functional.
The subject of assay [28] is Nicotiana tabacum. The assay is described as follows: Growth inhibition of green house tobacco seedlings assessed as cupping of the leaves at 100 uM after 72 hrs at 18.5 degC. It counts as functional, organism-based.
The test system of assay [29] is Nicotiana tabacum. The assay is described as follows: Growth inhibition of green house tobacco seedlings assessed as cupping of the leaves at 100 uM at 18.5 degC after 24 hrs. Format: functional, organism-based.

In the case of `CC1=CC(=O)CC(C)(C)C1(O)/C=C/C(C)=C\C(=O)O` (racemic) [ABSCISIC ACID], the “growth inhibition (GI)” value in the assay on Triticum aestivum [1] is reported as 100%. In addition, the inhibition of growth at 100 µM with Triticum aestivum [2] came out at 90%. In addition, the inhibition of growth at 1000 µM in the assay on Triticum aestivum [3] amounted to 100%. Besides, the inhibition of growth at 10 µM with Triticum aestivum [4] worked out at 69%.
With `C=C1[C@H]2CC[C@H]3[C@]4(C)C[C@H](O[C@@H]5O[C@H](CO)[C@@H](OS(=O)(=O)O)[C@H](OS(=O)(=O)O)[C@H]5OC(=O)CC(C)C)CC(C(=O)[O-])(C(=O)[O-])[C@H]4CC[C@]3(C2)[C@H]1O.[K+].[K+]` [POTASSIUM CARBOXYATRACTYLOSIDE], the result in the assay on Nicotiana tabacum [5], with Zea mays [6], with Nicotiana tabacum [7], in the assay with Zea mays [8], in the assay with Nicotiana tabacum [13] and with Nicotiana tabacum [14] was Active. For the same compound, the outcome in the assay on Nicotiana tabacum [16], in the assay on Zea mays [18], in the assay on Nicotiana tabacum [19], in the assay on Zea mays [20], in the assay with Nicotiana tabacum [21] and with Nicotiana tabacum [22] was Active. Also, the outcome in the assay with Nicotiana tabacum [23], in the assay with Nicotiana tabacum [24], with Zea mays [26], in the assay on Nicotiana tabacum [28] and in the assay on Nicotiana tabacum [29] was Active. In addition, the values for the inhibition of growth at 1000 µM with Zea mays [9], with Zea mays [12] and with Triticum aestivum [3] were 25%, 14% and 100%, respectively. Besides, the inhibition of growth at 10000 µM in the assay on Zea mays [10] turned out to be 50%; with Zea mays [11], 50%; in the assay on Zea mays [27], 43%. The Activity in the assay with Triticum aestivum [15] was 88.4%; with Triticum aestivum [17], 86.4%; in the assay on Triticum aestivum [25] it was 76.7%. Besides, the inhibition of growth at 100 µM in the assay with Triticum aestivum [2] amounted to 91%. Also, the inhibition of growth at 10 µM in the assay on Triticum aestivum [4] worked out at 48%.
